Reference: article PMC7221482 (Neurochemistry international, 2019)
Structures can show the parent of a compound that is named as a salt. Where two headings read alike, the source gives them in different places.

Experiments:
[1] = target: T1, hα3β4 AChRs ([3H]imipramine sites) (Homo sapiens, UniProt P30926+P32297); assay: [3H]Imipramine competition binding to hα3β4 AChR-containing membranes
[2] = target: T2, hα4β2 AChRs ([3H]imipramine sites) (Homo sapiens, UniProt P17787+P43681); assay: [3H]Imipramine competition binding to hα4β2 AChR-containing membranes
habenular mα3β4* AChRs = habenular mα3β4* AChRs (Mus musculus, UniProt Q8R493+Q8R4G9); assay: Patch-clamp recordings of ACh-evoked currents from MHb; type: cell-based
hα7 AChRs = hα7 AChRs (Homo sapiens, UniProt P36544); type: cell-based
rα9α10 AChRs = rα9α10 AChRs (Rattus norvegicus, UniProt P43144+Q9JLB5); type: cell-based
hα3β4 AChRs = hα3β4 AChRs (Homo sapiens, UniProt P30926+P32297); type: cell-based
hα4β2 AChRs = hα4β2 AChRs (Homo sapiens, UniProt P17787+P43681); type: cell-based
[3] = target: T1, hα3β4 AChRs ([3H]imipramine sites); conditions: ref Arias et al., cited from earlier work
[4] = target: T2, hα4β2 AChRs ([3H]imipramine sites); conditions: read-out: Kd (dissociation constant), ref Arias et al., 2010b; cited from earlier work
[5] = desensitized state, [3H]imipramine competition

Structure (SMILES): CN(C)CCCC1(c2ccc(F)cc2)OCc2cc(C#N)ccc21 (racemic) [(±)-citalopram, 1-[3-(dimethylamino)propyl]-1-(4-fluorophenyl)-1,3-dihydro-5-isobenzofurancarbonitrile]
- Ki [1]: 1.8 ± 0.1 µM
- nH (Hill coefficient) [1, 5]: 0.74 ± 0.04
- Ki [2]: 4.1 ± 0.3 µM
- Ki ([2]; Ki (binding affinity), resting state, in the presence of 0.1 κ-bungarotoxin): 5.9 ± 0.4 µM
- nH (Hill coefficient) [2, 5]: 0.72 ± 0.03
- IC50 (habenular mα3β4* AChRs; IC50(0), ligand concentration to produce 50% inhibition at 0 mV, one-site blocking model, Eq. (1)): 92 µM
- IC50 (habenular mα3β4* AChRs; IC50, inhibition of 100 μM ACh puff-evoked currents, MHb (VI) neurons): 7.6 ± 1 µM
- IC50 (hα7 AChRs): 18.8 ± 1.1 µM
- nH (Hill coefficient) (hα7 AChRs; inhibition of (±)-epibatidine-induced Ca2+ influx, GH3-hα7 cells): 1.44 ± 0.22
- IC50 (rα9α10 AChRs): 7.5 ± 0.9 µM
- increase of the ACh EC50 value (rα9α10 AChRs; 8.0 μM (±)-citalopram, p = 0.0001): 7.5 fold
- nH (Hill coefficient) (rα9α10 AChRs; inhibition of 10 μM ACh-evoked rα9α10 currents, Xenopus oocytes): 1.35 ± 0.10
- inhibition at 10 µM (rα9α10 AChRs; read-out: inhibition of ACh responses, 10 μM (±)-citalopram, 10 μM ACh, +40 mV): 43.3 ± 4.9%
- inhibition at 10 µM (rα9α10 AChRs; read-out: inhibition of ACh responses, 10 μM (±)-citalopram, 10 μM ACh, −90 mV): 46 ± 4.7%
- IC50 (hα3β4 AChRs): 5.1 ± 1.3 µM
- nH (Hill coefficient) (hα3β4 AChRs; inhibition of (±)-epibatidine-induced Ca2+ influx, HEK293-hα3β4 cells): 1.00 ± 0.10
- IC50 (hα4β2 AChRs): 19.1 ± 4.2 µM
- nH (Hill coefficient) (hα4β2 AChRs; inhibition of (±)-epibatidine-induced Ca2+ influx, HEK293-hα4β2 cells): 1.24 ± 0.19

Structure (SMILES): CNCCC(Oc1ccc(C(F)(F)F)cc1)c1ccccc1 (centres unmarked) [fluoxetine]
- Ki ([3]; hα3β4 AChR, [3H]imipramine sites, 2010a): 4.8 ± 0.5 µM

Structure (SMILES): CC(=O)OCC[N+](C)(C)C [ACh, acetylcholine]
- nH of ACh (rα9α10 AChRs; No (±)-citalopram): 0.98 ± 0.2
- nH of ACh (rα9α10 AChRs; in the presence of 8.0 μM (±)-citalopram): 1.11 ± 0.6

Structure (SMILES): CN(C)CCCN1c2ccccc2CCc2ccccc21 [[^3H]imipramine, [^3H]Imipramine hydrochloride]
- Kd ([3]; read-out: Kd (dissociation constant), hα3β4 AChRs, 2010c): 0.41 µM
- Kd [4]: 0.83 µM
